Reference: patent US9365522B2, “Pyrazole amide derivative” (AMGEN INC., priority 2015, dated 2016)
Where two headings read alike, the source gives them in different places.

Target: T1, ligand binding domain of human ROR gamma (Homo sapiens, UniProt P51449)
T1 construct: NM_001001523; expressed in transfected cells; host or cells: HEK293T
T1 sequence (P51449 247-497 isoform P51449-2): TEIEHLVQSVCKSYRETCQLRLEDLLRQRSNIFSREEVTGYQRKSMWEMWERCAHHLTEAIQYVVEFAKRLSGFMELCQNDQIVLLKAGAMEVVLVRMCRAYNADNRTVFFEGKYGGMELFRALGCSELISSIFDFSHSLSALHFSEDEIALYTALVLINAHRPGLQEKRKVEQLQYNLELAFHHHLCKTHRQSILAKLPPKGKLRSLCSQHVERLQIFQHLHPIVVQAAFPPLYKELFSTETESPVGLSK
Assay: ROR gamma reporter gene assay (GAL4-RORγ LBD luciferase, Dual-Glo)
Format: cell-based
Settings: HEK293T cells transfected with pM-ROR gamma, 8 concentrations 3.5 nM to 10.5 μM, 24 h incubation
Outline: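 HEK293T cells co-transfected with GAL4-DBD fused to human RORγ LBD (aa 247-497), 5×UAS firefly luciferase reporter and CMV-renilla, in charcoal-stripped serum.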

[1] = read-out: result (pIC50, inhibition of RORγ transcriptional activity) (converted)

Compound: O=C(CN(C(=O)c1cnn([C@H]2CC[C@H](C(=O)O)CC2)c1C(F)(F)F)[C@H]1CC[C@H](C(F)(F)F)CC1)c1c(Cl)cncc1Cl [Example 213, trans-4-(4-((2-(3,5-dichloropyridin-4-yl)-2-oxoethyl)-(4-(trifluoromethyl)cyclohexyl)carbamoyl)-5-(trifluoromethyl)pyrazol-1-yl)cyclohexane-1-carboxylic acid]
- IC50 [1]: 112000 pM

Compound: CC(C)(C)CN(C[C@@H](O)c1ncccc1Cl)C(=O)c1cnn([C@H]2CC[C@](C)(C(=O)O)CC2)c1C(F)(F)F (stereo in doubt) [Example 403, trans-4-(4-((2-(3-chloropyridin-2-yl)-2-hydroxyethyl)-(2,2-dimethylpropyl)carbamoyl)-5-(trifluoromethyl)pyrazol-1-yl)-1-methylcyclohexane-1-carboxylic acid]
- IC50 [1]: 1.74e+06 pM

Compound: CC1(C)CC(CN(CC(=O)c2c(Cl)cccc2C(F)(F)F)C(=O)c2cnn(C34CCC(C(=O)O)(CC3)CC4)c2C(F)(F)F)C1 [Example 258, 4-(4-((2-(2-chloro-6-(trifluoromethyl)phenyl)-2-oxoethyl)-((3,3-dimethylcyclobutyl)methyl)carbamoyl)-5-(trifluoromethyl)pyrazol-1-yl)bicyclo[2.2.2]octane-1-carboxylic acid]
- IC50 [1]: 6610 pM

Compound: O=C(CN(Cc1cc(F)cc(F)c1)C(=O)c1cnn([C@H]2CC[C@H](C(=O)O)CC2)c1C(F)(F)F)c1c(O)nc(O)nc1O [Example 12, trans-4-(4-((3,5-difluorobenzyl)(2-oxo-2-(2,4,6-trihydroxypyrimidin-5-yl)ethyl)carbamoyl)-5-(trifluoromethyl)-1H-pyrazol-1-yl)cyclohexanecarboxylic acid]
- IC50 (result (pIC50, inhibition of RORγ transcriptional activity)): 3.72e+06 pM

Compound: CC1(C)C(CN(CC(=O)c2c(Cl)cncc2Cl)C(=O)c2cnn([C@H]3CC[C@](C)(C(=O)O)CC3)c2C(F)(F)F)C1(C)C [Example 325, trans-4-(4-((2-(3,5-dichloropyridin-4-yl)-2-oxoethyl)-((2,2,3,3-tetramethylcyclopropyl)methyl)carbamoyl)-5-(trifluoromethyl)pyrazol-1-yl)-1-methylcyclohexane-1-carboxylic acid]
- IC50 [1]: 10700 pM

Compound: O=C(CN(CC1(F)CCCC1)C(=O)c1cnn(C23CCC(C(=O)O)(CC2)CC3)c1C(F)(F)F)c1c(Cl)cc(F)cc1Cl [Example 271, 4-(4-((2-(2,6-dichloro-4-fluorophenyl)-2-oxoethyl)-((1-fluorocyclopentyl)methyl)carbamoyl)-5-(trifluoromethyl)pyrazol-1-yl)bicyclo[2.2.2]octane-1-carboxylic acid]
- IC50 [1]: 5130 pM

Compound: Nc1nccc(Cl)c1C(=O)CN(Cc1cc(F)cc(F)c1)C(=O)c1cnn([C@H]2CC[C@H](C(=O)O)CC2)c1C(F)(F)F [Example 21, trans-4-(4-((2-(2-amino-4-chloropyridin-3-yl)-2-oxoethyl)(3,5-difluorobenzyl)carbamoyl)-5-(trifluoromethyl)-1H-pyrazol-1-yl)cyclohexanecarboxylic acid]
- IC50 [1]: > 1e+07 pM

Compound: CC1(C)[C@@H]2C[C@H](N(CC(=O)c3c(F)cncc3Cl)C(=O)c3cnn([C@H]4CC[C@](C)(C(=O)O)CC4)c3C(F)(F)F)C[C@@H]21 [Example 333, trans-4-(4-((2-(3-chloro-5-fluoropyridin-4-yl)-2-oxoethyl)((1R,3r,5S)-6,6-dimethylbicyclo[3.1.0]hexan-3-yl)carbamoyl)-5-(trifluoromethyl)-1H-pyrazol-1-yl)-1-methylcyclohexanecarboxylic acid]
- IC50 [1]: 17000 pM

Compound: trans-4-(4-((2-(3-chloro-5-fluoropyridin-4-yl)- 2-oxoethyl)-(2,2-dimethylbutyl)carbamoyl)-5- (trifluoromethyl)pyrazol-1-yl)-1- methylcyclohexane-1-carboxylic acid [Example 337]
- result (pIC50, inhibition of RORγ transcriptional activity): 7.20

Compound: CC1(C)[C@@H]2C[C@H](N(CC(=O)c3c(Cl)cncc3Cl)C(=O)c3cnn([C@H]4CC[C@H](C(=O)O)CC4)c3C(F)(F)F)C[C@@H]21 [Example 264, trans-4-(4-((2-(3,5-dichloropyridin-4-yl)-2-oxoethyl)-((1R,3r,5S)-6,6-dimethyl-3-bicyclo[3.1.0]hexanyl)carbamoyl)-5-(trifluoromethyl)pyrazol-1-yl)cyclohexane-1-carboxylic acid]
- IC50 [1]: 8130 pM

Compound: Cc1c(C(=O)N(CC(=O)c2c(Cl)cncc2Cl)Cc2cc(F)cc(F)c2)cnn1[C@H]1CC[C@H](C(=O)O)CC1 [Example 164, trans-4-(4-((2-(3,5-dichloropyridin-4-yl)-2-oxoethyl)-((3,5-difluorophenyl)methyl)carbamoyl)-5-methylpyrazol-1-yl)cyclohexane-1-carboxylic acid]
- IC50 [1]: 1.17e+06 pM

Compound: CONC(=O)[C@H]1CC[C@H](n2ncc(C(=O)N(CC(=O)c3c(Cl)cncc3Cl)Cc3cc(F)cc(F)c3)c2C(F)(F)F)CC1 [Example 6, N-(2-(3,5-dichloropyridin-4-yl)-2-oxoethyl)-N-(3,5-difluorobenzyl)-1-(trans-4-(methoxycarbamoyl)cyclohexyl)-5-(trifluoromethyl)-1H-pyrazole-4-carboxamide]
- IC50 [1]: 87100 pM

Compound: O=C(CN(Cc1cc(F)cc(F)c1)C(=O)c1cnn([C@H]2CC[C@H](C(=O)O)CC2)c1C(F)(F)F)c1c(Cl)cncc1Cl [Example 42, trans-4-(4-((2-(3,5-dichloropyridin-4-yl)-2-oxoethyl)(3,5-difluorobenzyl)carbamoyl)-5-(trifluoromethyl)-1H-pyrazol-1-yl)cyclohexanecarboxylic acid]
- IC50 [1]: 44700 pM

Compound: CC1(C)CCC(N(CC(=O)c2c(Cl)cc(F)cc2Cl)C(=O)c2cnn([C@H]3C[C@@H](C(=O)O)C3)c2C(F)(F)F)CC1 [Example 291, cis-3-(4-((2-(2,6-dichloro-4-fluorophenyl)-2-oxoethyl)-(4,4-dimethylcyclohexyl)carbamoyl)-5-(trifluoromethyl)pyrazol-1-yl)cyclobutane-1-carboxylic acid]
- IC50 [1]: 1.02e+06 pM

Compound: CC(C)(C)CN(CC(=O)c1c(Cl)cncc1Cl)C(=O)c1cnn(C23CCC(C(=O)O)(CC2)CC3)c1C(F)(F)F [Example 233, 4-(4-((2-(3,5-dichloropyridin-4-yl)-2-oxoethyl)-(2,2-dimethylpropyl)carbamoyl)-5-(trifluoromethyl)pyrazol-1-yl)bicyclo[2.2.2]octane-1-carboxylic acid]
- IC50 [1]: 15800 pM

Compound: CC1(C)CC(CN(CC(=O)c2c(Cl)cc(F)cc2Cl)C(=O)c2cnn(C34CCC(C(=O)O)(CC3)CC4)c2C(F)(F)F)C1 [Example 266, 4-(4-((2-(2,6-dichloro-4-fluorophenyl)-2-oxoethyl)-((3,3-dimethylcyclobutyl)methyl)carbamoyl)-5-(trifluoromethyl)pyrazol-1-yl)bicyclo[2.2.2]octane-1-carboxyIic acid]
- IC50 [1]: 5370 pM

Compound: CC(C)(C)CN(CC(=O)c1c[nH]c2cccc(Cl)c12)C(=O)c1cnn([C@H]2CC[C@](C)(C(=O)O)CC2)c1C(F)(F)F [Example 352, trans-4-(4-((2-(4-chloro-1H-indol-3-yl)-2-oxoethyl)-(2,2-dimethylpropyl)carbamoyl)-5-(trifluoromethyl)pyrazol-1-yl)-1-methylcyclohexane-1-carboxylic acid]
- IC50 [1]: 4.07e+06 pM
